Common to all, as to format: functional
The subject of test [1] is Staphylococcus aureus. Nature of the test: Antimicrobial activity against Staphylococcus aureus 29.
For a further test, the system named is Escherichia coli. Nature of the test: Antimicrobial activity against Escherichia coli.
In test [2] the test system is Staphylococcus aureus. The experiment in a line: Antimicrobial activity against methicillin-resistant Staphylococcus aureus 003.
Test [3] relates to Staphylococcus aureus. The experiment in a line: Antimicrobial activity against Staphylococcus aureus 31.
In the next test the test system is Pseudomonas aeruginosa. Nature of the test: Antimicrobial activity against Pseudomonas aeruginosa.
For test [4], the system named is Staphylococcus aureus. Nature of the test: Antimicrobial activity against methicillin-resistant Staphylococcus aureus 011.
A further test has as its system Enterococcus faecalis. The experiment in a line: Antimicrobial activity against vancomycin resistant Enterococcus faecalis ATCC 51299.
The next test deals with Candida albicans. The experiment in a line: Antimicrobial activity against fluconazole-resistant Candida albicans.
Test [5] relates to Staphylococcus aureus. The experiment in a line: Antimicrobial activity against Staphylococcus aureus 10.

We go through 21 compounds from ChEMBL document CHEMBL6127107, “Oleanolic acid derivatives against drug-resistant bacteria and fungi by multi-targets to avoid drug resistance” (Eur J Med Chem, 2024).

In general, MIC refers to the lowest concentration that inhibits growth of the organism.

In brackets after ≈: the same amount, converted by molar mass.

Consider `CCCCCOC(=O)[C@]12CCC(C)(C)C[C@H]1C1=CC[C@@H]3[C@@]4(C)CC[C@H](O)C(C)(C)[C@@H]4CC[C@@]3(C)[C@]1(C)CC2`, for which the MIC with Staphylococcus aureus [1], against Escherichia coli, in the test with Staphylococcus aureus [2], with Staphylococcus aureus [3], with Pseudomonas aeruginosa and in the test on Staphylococcus aureus [4] was greater than 64 µg/mL each time. The MIC with Enterococcus faecalis, with Candida albicans and against Staphylococcus aureus [5] was greater than 64 µg/mL throughout.

Regarding `CCC(=O)O[C@H]1CC[C@]2(C)[C@H]3CC=C4[C@@H]5CC(C)(C)CC[C@]5(C(=O)O)CC[C@@]4(C)[C@]3(C)CC[C@H]2C1(C)C`, the minimum inhibitory concentration (MIC) in the test with Staphylococcus aureus [1], against Escherichia coli, against Staphylococcus aureus [2], against Staphylococcus aureus [3], with Pseudomonas aeruginosa and with Staphylococcus aureus [4] was greater than 64 µg/mL throughout. Besides, the minimum inhibitory concentration (MIC) in the test with Enterococcus faecalis, against Candida albicans and with Staphylococcus aureus [5] was greater than 64 µg/mL throughout.

As to `CCCOC(=O)[C@]12CCC(C)(C)C[C@H]1C1=CC[C@@H]3[C@@]4(C)CC[C@H](O)C(C)(C)[C@@H]4CC[C@@]3(C)[C@]1(C)CC2`, the MIC against Staphylococcus aureus [1], against Escherichia coli, with Staphylococcus aureus [2], with Staphylococcus aureus [3], against Pseudomonas aeruginosa and in the test with Staphylococcus aureus [4] was greater than 64 µg/mL in each case. In addition, the MIC with Enterococcus faecalis, in the test with Candida albicans and with Staphylococcus aureus [5] was greater than 64 µg/mL throughout.

In the case of `CC1(C)CC[C@]2(C(=O)O)CC[C@]3(C)C(=CC[C@@H]4[C@@]5(C)CC[C@H](OC(=O)c6ccccc6)C(C)(C)[C@@H]5CC[C@]43C)[C@@H]2C1`, the MIC in the test on Staphylococcus aureus [1], against Escherichia coli, with Staphylococcus aureus [2], against Staphylococcus aureus [3], against Pseudomonas aeruginosa and against Staphylococcus aureus [4] was greater than 64 µg/mL throughout. In addition, the MIC in the test on Enterococcus faecalis, in the test on Candida albicans and in the test on Staphylococcus aureus [5] was greater than 64 µg/mL in each case.

As for `CCNCC(O)CO[C@H]1CC[C@]2(C)[C@H]3CC=C4[C@@H]5CC(C)(C)CC[C@]5(C(=O)O)CC[C@@]4(C)[C@]3(C)CC[C@H]2C1(C)C` (stereo partly drawn), the MIC against Staphylococcus aureus [1], against Escherichia coli, against Staphylococcus aureus [2], against Staphylococcus aureus [3], against Pseudomonas aeruginosa and in the test with Staphylococcus aureus [4] was greater than 64 µg/mL in each case. Further, the MIC in the test on Enterococcus faecalis, in the test on Candida albicans and in the test with Staphylococcus aureus [5] was greater than 64 µg/mL each time.

Take `CCNC(=O)[C@]12CCC(C)(C)C[C@H]1C1=CC[C@@H]3[C@@]4(C)CC[C@H](OC(C)=O)C(C)(C)[C@@H]4CC[C@@]3(C)[C@]1(C)CC2`: the MIC against Staphylococcus aureus [1], against Escherichia coli, in the test on Staphylococcus aureus [2], in the test on Staphylococcus aureus [3], in the test with Pseudomonas aeruginosa and with Staphylococcus aureus [4] was greater than 64 µg/mL each time. Also, the MIC in the test with Enterococcus faecalis, against Candida albicans and in the test with Staphylococcus aureus [5] was greater than 64 µg/mL each time.

Turning to `CC(=O)O[C@H]1CC[C@]2(C)[C@H]3CC=C4[C@@H]5CC(C)(C)CC[C@]5(C(=O)N(C)C)CC[C@@]4(C)[C@]3(C)CC[C@H]2C1(C)C`, the MIC against Staphylococcus aureus [1], against Escherichia coli, against Staphylococcus aureus [2], in the test on Staphylococcus aureus [3], against Pseudomonas aeruginosa and against Staphylococcus aureus [4] was greater than 64 µg/mL each time. The MIC in the test with Enterococcus faecalis, in the test on Candida albicans and against Staphylococcus aureus [5] was greater than 64 µg/mL in each case.

On to `CCCCCCCCCCCCCOC(=O)[C@]12CCC(C)(C)C[C@H]1C1=CC[C@@H]3[C@@]4(C)CC[C@H](O)C(C)(C)[C@@H]4CC[C@@]3(C)[C@]1(C)CC2`, for which the MIC in the test on Staphylococcus aureus [1], in the test with Escherichia coli, in the test on Staphylococcus aureus [2], against Staphylococcus aureus [3], in the test with Pseudomonas aeruginosa and against Staphylococcus aureus [4] was greater than 64 µg/mL each time. Further, the minimum inhibitory concentration (MIC) against Enterococcus faecalis, against Candida albicans and in the test with Staphylococcus aureus [5] was greater than 64 µg/mL throughout.

As to `CCCC(=O)O[C@H]1CC[C@]2(C)[C@H]3CC=C4[C@@H]5CC(C)(C)CC[C@]5(C(=O)O)CC[C@@]4(C)[C@]3(C)CC[C@H]2C1(C)C`, the MIC against Staphylococcus aureus [1], with Escherichia coli, with Staphylococcus aureus [2], in the test on Staphylococcus aureus [3], in the test with Pseudomonas aeruginosa and in the test with Staphylococcus aureus [4] was greater than 64 µg/mL each time. The MIC in the test on Enterococcus faecalis, against Candida albicans and against Staphylococcus aureus [5] was greater than 64 µg/mL throughout.

`CC(=O)O[C@H]1CC[C@]2(C)[C@H]3CC=C4[C@@H]5CC(C)(C)CC[C@]5(C(=O)N5CCCCC5)CC[C@@]4(C)[C@]3(C)CC[C@H]2C1(C)C`: the minimum inhibitory concentration (MIC) against Staphylococcus aureus [1], in the test on Escherichia coli, against Staphylococcus aureus [2], against Staphylococcus aureus [3], against Pseudomonas aeruginosa and in the test with Staphylococcus aureus [4] was greater than 64 µg/mL each time. Besides, the MIC against Enterococcus faecalis, with Candida albicans and in the test on Staphylococcus aureus [5] was greater than 64 µg/mL each time.

`CC(=O)O[C@H]1CC[C@]2(C)[C@H]3CC=C4[C@@H]5CC(C)(C)CC[C@]5(C(=O)NCCc5ccccc5)CC[C@@]4(C)[C@]3(C)CC[C@H]2C1(C)C`: the minimal inhibitory concentration (MIC) in the test on Staphylococcus aureus [1], in the test on Escherichia coli, in the test with Staphylococcus aureus [2], against Staphylococcus aureus [3], against Pseudomonas aeruginosa and against Staphylococcus aureus [4] was greater than 64 µg/mL each time. Moreover, the MIC against Enterococcus faecalis, against Candida albicans and in the test on Staphylococcus aureus [5] was greater than 64 µg/mL in each case.

For `CCCCCCCCCOC(=O)[C@]12CCC(C)(C)C[C@H]1C1=CC[C@@H]3[C@@]4(C)CC[C@H](O)C(C)(C)[C@@H]4CC[C@@]3(C)[C@]1(C)CC2`, the MIC against Staphylococcus aureus [1], in the test on Escherichia coli, in the test on Staphylococcus aureus [2], against Staphylococcus aureus [3], in the test on Pseudomonas aeruginosa and in the test with Staphylococcus aureus [4] was greater than 64 µg/mL in each case. Also, the MIC against Enterococcus faecalis, against Candida albicans and with Staphylococcus aureus [5] was greater than 64 µg/mL in each case.

For `CC(=O)O[C@H]1CC[C@]2(C)[C@H]3CC=C4[C@@H]5CC(C)(C)CC[C@]5(C(=O)NCc5ccc(F)cc5)CC[C@@]4(C)[C@]3(C)CC[C@H]2C1(C)C`, the MIC in the test with Staphylococcus aureus [1], in the test with Escherichia coli, with Staphylococcus aureus [2], in the test with Staphylococcus aureus [3], in the test on Pseudomonas aeruginosa and against Staphylococcus aureus [4] was greater than 64 µg/mL throughout. The MIC with Enterococcus faecalis, in the test on Candida albicans and in the test with Staphylococcus aureus [5] was greater than 64 µg/mL each time.

Regarding `CC1(C)CC[C@]2(C(=O)O)CC[C@]3(C)C(=CC[C@@H]4[C@@]5(C)CC[C@H](OCC(O)CNCc6ccoc6)C(C)(C)[C@@H]5CC[C@]43C)[C@@H]2C1` (stereo partly drawn), the MIC with Staphylococcus aureus [1], against Escherichia coli, against Staphylococcus aureus [2], with Staphylococcus aureus [3], against Pseudomonas aeruginosa and against Staphylococcus aureus [4] was greater than 64 µg/mL each time. Moreover, the MIC in the test with Enterococcus faecalis, against Candida albicans and against Staphylococcus aureus [5] was greater than 64 µg/mL throughout.

For `C[C@@H]1CC[C@]2(C(=O)O)CC[C@]3(C)C(=CC[C@@H]4[C@@]5(C)CC[C@H](O)[C@@](C)(CO)[C@@H]5CC[C@]43C)[C@@H]2[C@]1(C)O` [ROTUNDIC ACID], the minimum inhibitory concentration (MIC) came to 128 µg/mL (≈ 262 µM) in the test with Staphylococcus aureus [2] and 256 µg/mL (≈ 524 µM) against Enterococcus faecalis.

Regarding `CC1(C)CC[C@]2(C(=O)O)CC[C@]3(C)C(=CC[C@@H]4[C@@]5(CO)C[C@@H](O)[C@H](O)[C@@](C)(CO)[C@@H]5CC[C@]43C)[C@@H]2C1`, the MIC against Staphylococcus aureus [2] and against Enterococcus faecalis was greater than 512 µg/mL each time.

In the case of `CC1(C)CC[C@]2(C(=O)O)CC[C@]3(C)C(=CC[C@@H]4[C@@]5(C)CC[C@H](OCC(O)CN6CCCCC6)C(C)(C)[C@@H]5CC[C@]43C)[C@@H]2C1` (stereo partly drawn), the MIC in the test on Staphylococcus aureus [1], in the test on Escherichia coli, in the test with Staphylococcus aureus [2], with Staphylococcus aureus [3], in the test on Pseudomonas aeruginosa and against Staphylococcus aureus [4] was greater than 64 µg/mL throughout. Moreover, the minimum inhibitory concentration (MIC) in the test with Enterococcus faecalis, with Candida albicans and against Staphylococcus aureus [5] was greater than 64 µg/mL each time.

`CN(C)CC(O)CO[C@H]1CC[C@]2(C)[C@H]3CC=C4[C@@H]5CC(C)(C)CC[C@]5(C(=O)O)CC[C@@]4(C)[C@]3(C)CC[C@H]2C1(C)C` (stereo partly drawn): the minimum inhibitory concentration (MIC) in the test on Staphylococcus aureus [1], with Escherichia coli, against Staphylococcus aureus [2], in the test with Staphylococcus aureus [3], in the test with Pseudomonas aeruginosa and against Staphylococcus aureus [4] was greater than 64 µg/mL in each case. Further, the MIC against Enterococcus faecalis, against Candida albicans and in the test with Staphylococcus aureus [5] was greater than 64 µg/mL each time.

For the compound `CCCCC(=O)O[C@H]1CC[C@]2(C)[C@H]3CC=C4[C@@H]5CC(C)(C)CC[C@]5(C(=O)O)CC[C@@]4(C)[C@]3(C)CC[C@H]2C1(C)C`, the MIC in the test on Staphylococcus aureus [1], with Escherichia coli, with Staphylococcus aureus [2], against Staphylococcus aureus [3], against Pseudomonas aeruginosa and against Staphylococcus aureus [4] was greater than 64 µg/mL throughout. In addition, the MIC in the test with Enterococcus faecalis, against Candida albicans and against Staphylococcus aureus [5] was greater than 64 µg/mL in each case.

For the compound `CCCCCCC(=O)O[C@H]1CC[C@]2(C)[C@H]3CC=C4[C@@H]5CC(C)(C)CC[C@]5(C(=O)O)CC[C@@]4(C)[C@]3(C)CC[C@H]2C1(C)C`, the minimum inhibitory concentration (MIC) with Staphylococcus aureus [1], against Escherichia coli, against Staphylococcus aureus [2], against Staphylococcus aureus [3], in the test with Pseudomonas aeruginosa and against Staphylococcus aureus [4] was greater than 64 µg/mL throughout. The minimal inhibitory concentration (MIC) against Enterococcus faecalis, with Candida albicans and in the test with Staphylococcus aureus [5] was greater than 64 µg/mL throughout.

For `CC1(C)C(OC(=O)c2ccccc2)CC[C@]2(C)C3=C([C@@H](O)C[C@@H]12)[C@@]1(C)CC[C@@]2(C)CC[C@@](C)(COC(=O)c4ccccc4)C[C@H]2[C@]1(C)CC3` (stereo partly drawn), the MIC against Staphylococcus aureus [2] and in the test on Enterococcus faecalis was greater than 512 µg/mL throughout.
